Results: article PMC9000575, “Solution Equilibrium Studies on Salicylidene Aminoguanidine Schiff Base Metal Complexes: Impact of the Hybridization with L-Proline on Stability, Redox Activity and Cytotoxicity” (Molecules, 2022)

Experiments:
[1] = stability constants of Cu(II) complexes by pH-potentiometry; type: physicochemical; conditions: for logβ [CuLH−1] / logβ [CuLH−2]− / logβ [CuL]+: 25 °C, I = 0.10 M (KCl); for pCu(II) (−log[Cu(II)]): calculated at pH 7.4, cCu(II) = 1 μM, cligand = 10 μM
Experimental: Interaction between Pro-SISC-Me and Cu(II) ions could be studied by pH-potentiometry in water due to the adequate solubility of the species (Figure S7b), and the calculated overall stability constants are collected in Table 2. Based on the titration data, formation of only mono-ligand complexes ([CuL]^+, [CuLH−1], [CuLH−2]^−) was observed even at higher metal-to-ligand ratios. Stability constants for the complexes formed with the more lipophilic SISC were determined in the presence of 30% (v/v) DMSO/H2O (Figure S7a), and for the Cu(II)—Pro-SISC-Me system was studied as well in the same solvent system for comparison (Table 2). […] In the case of SISC, the stability constant could not be obtained for the [CuLH−2]^− species as in its formation pH range (>8) precipitation appeared in the solution. The thiosemicarbazone analogues (STSC and Pro-STSC-Me) also form exclusively mono-ligand complexes ([CuLH]^+, [CuL], [CuLH−1]^−), however, protonated complexes could not be found for SISC and Pro-SISC-Me.
(§1) The pH-potentiometric measurements for the determination of the proton dissociation constants of the ligands and the overall stability constants of the metal complexes were carried out at 25.0 ± 0.1 °C in water or in 30% (v/v) DMSO/H2O as solvent and at an ionic strength of 0.10 M (KCl). The titrations were performed with carbonate-free KOH solution of known concentration (0.10 M). The concentrations of the base and the HCl were determined by pH-potentiometric titrations. An Orion 710A pH-meter equipped with a Metrohm combined electrode (type 6.0234.100), and a Metrohm 665 Dosimat burette were used for the titrations. […] The average water ionization constant pKw was 13.76 ± 0.05 (water) or 14.52 ± 0.05 (30% (v/v) DMSO/H2O). The pH-potentiometric titrations were performed in the pH range 2.0–12.5. The initial volume of the samples was 10.0 mL. The ligand concentration was 2 mM and metal ion-to-ligand ratios of 1:1–1:3 were used. The accepted fitting of the titration curves was always less than 0.01 mL. Argon was always passed over the solutions during the titrations. The exact concentration of the ligand stock solutions together with the proton dissociation constants were determined by pH-potentiometric titrations with the use of the computer program HYPERQUAD [44]. It was also utilized to establish the stoichiometry of the complexes and to calculate the stability constants (β(MpLqHr)). β(MpLqHr) is defined for the general equilibrium pM + qL + rH ⇋ MpLqHr as β(MpLqHr) = [MpLqHr]/[M]^p[L]^q[H]^r, where M denotes the metal ion and L the completely deprotonated ligand. In all calculations exclusively, titration data were used from experiments in which no precipitate was visible in the reaction mixture.

[2] = stability constants of Fe(III) complexes by pH-potentiometry; type: physicochemical; conditions: 30% (v/v) DMSO/H2O; for pFe(III)* (−logΣ[Fe(III)i(OH)j]): calculated at pH 7.4, cFe = 1 μM, cligand = 10 μM
Experimental: as §1

[3] = tested on: Colo-205 human colon adenocarcinoma cells; assay: MTT cytotoxicity test; type: cell-based; conditions: Homo sapiens, Colo-205, 72 h
Experimental: (§2) All cell culture reagents were obtained from Sigma-Aldrich and plastic ware from Sarstedt (Nümbrecht, Germany). Human colon Colo-205 (chemo-sensitive) and Colo-320 (doxorubicin-resistant) adenocarcinoma and MRC-5 human embryonal lung fibroblast cell lines were purchased from LGC Promochem, Teddington, UK. The colon adenocarcinoma cells were cultured in Roswell Park Memorial Institute (RPMI) 1640 medium supplemented with 10% heat-inactivated fetal bovine serum, 2 mM L-glutamine, 1 mM sodium pyruvate and 100 mM HEPES. The MRC-5 cell line was cultured in Eagle’s Minimal Essential Medium (EMEM, Sigma-Aldrich, St. Louis, MO, USA) supplemented with a non-essential amino acid (NEAA) mixture (Sigma-Aldrich, St. Louis, MO, USA) a selection of vitamins, 10% heat-inactivated foetal bovine serum (FBS), 2 mM L-glutamine (Sigma-Aldrich, St. Louis, MO, USA), 1 mM Na-pyruvate (Sigma-Aldrich, St. Louis, MO, USA), nystatin (Sigma-Aldrich, St. Louis, MO, USA) and a penicillin-streptomycin mixture (Sigma-Aldrich, St. Louis, MO, USA) in concentrations of 100 U/L and 10 mg/L, respectively. The cells were incubated at 37 °C, in a 5% CO2, 95% air atmosphere. All cell lines were detached with Trypsin-Versene® (EDTA) solution for 5 min at 37 °C.
(§3) The tested compounds were dissolved in 90% (v/v) DMSO/H2O using 8 mM concentration, […] in the final samples the DMSO content was always lower than 1%. Then stock solutions were diluted in complete culture medium, and two-fold serial dilutions of compounds were prepared in 100 μL of the medium, horizontally. The semi-adherent colon adenocarcinoma cells were treated with Trypsin-Versene (EDTA) solution. They were adjusted to a density of 1 × 10^4 cells in 100 μL of RPMI 1640 or EMEM medium and were added to each well, with the exception of the medium control wells. The final volume of the wells containing compounds and cells was 200 μL. The plates containing Colo-205, Colo-320 or MRC-5 cells were incubated at 37 °C for 72 h; at the end of the incubation period, 20 μL of MTT solution (from a stock solution of 5 mg/mL) were added to each well. After incubation at 37 °C for 4 h, 100 μL of SDS solution (10% in 0.01 M HCI) were added to each well, and the plates were further incubated at 37 °C overnight. Cell growth was determined by measuring the optical density (OD) at 540/630 nm with a Multiskan EX plate reader (Thermo Labsystems, Cheshire, WA, USA). Inhibition of the cell growth (expressed as IC50: inhibitory concentration that reduces by 50% the growth of the cells exposed to the tested compounds) was determined from the sigmoid curve where 100 − ((ODsample − ODmedium control)/(ODcell control − ODmedium control)) × 100 values were plotted against the logarithm of compound concentrations. Curves were fitted by GraphPad Prism software (2021, Graphpad Software, San Diego, CA, USA) using the sigmoidal dose–response model (comparing variable and fixed slopes). The IC50 values were obtained from at least three independent experiments.

[4] = tested on: Colo-320 (doxorubicin-resistant) human colon adenocarcinoma cells; assay: MTT cytotoxicity test; type: cell-based; conditions: Homo sapiens, Colo-320, 72 h
Experimental: as §2, §3

[5] = tested on: MRC-5 human embryonal lung fibroblast cells; assay: MTT cytotoxicity test; type: cell-based; conditions: Homo sapiens, MRC5, MRC-5, 72 h
Experimental: as §2, §3

Row | Compound | logβ [CuLH−1] ([1]; 30% DMSO) | logβ [CuLH−2]− ([1]; 30% DMSO) | logβ [CuL]+ ([1]; 30% DMSO) | logβ [CuLH−1] ([1]; H2O) | logβ [CuLH−2]− ([1]; H2O) | logβ [CuL]+ ([1]; H2O) | fraction of [CuL]+ at pH 7.4 ([1]; based on the stability constants) | pCu(II) (−log[Cu(II)]) ([1]; 30% DMSO) | pCu(II) (−log[Cu(II)]) ([1]; H2O) | logβ [Fe(III)L2H−1] ([2]; 25 °C, I = 0.10 M (KCl)) | logβ [Fe(III)L2H−2]− ([2]; 25 °C, I = 0.10 M (KCl)) | logβ [Fe(III)L2]+ ([2]; 25 °C, I = 0.10 M (KCl)) | logβ [Fe(III)L]2+ ([2]; 25 °C, I = 0.10 M (KCl)) | pFe(III)* (−logΣ[Fe(III)i(OH)j]) [2] | IC50 [3] | IC50 [4] | IC50 [5]
1 | Cc1cc(C=NNC(=N)N)c(O)c(CN2CCCC2C(=O)O)c1 (centres unmarked) [Pro-SISC-Me] | 6.57 ± 0.05 | −4.42 ± 0.06 | 15.08 ± 0.02 | 6.96 ± 0.03 | −3.22 ± 0.04 | 14.99 ± 0.02 | 100% | 13.39 | 13.59 | 18.40 ± 0.07 | 8.64 ± 0.08 | 27.63 ± 0.05 | 15.25 ± 0.04 | 10.0 | > 80 µM | > 80 µM | > 80 µM
2 | N=C(N)NN=Cc1ccccc1O [SISC, 2-(2-hydroxybenzylidene)hydrazinecarboximidamide] | 6.28 ± 0.07 | – | 14.74 ± 0.02 | – | – | – | – | 12.08 | – | – | – | 27.46 ± 0.05 | 14.96 ± 0.05 | 7.9 | > 80 µM | > 80 µM | > 80 µM
